Consider 3 compounds from US8969409B2, “Treatment for pulmonary hypertension” (United Therapeutics Corporation, priority 2010, dated 2015).

Data set [1] concerns pulmonary artery pressure (PAP). The experiment in a line: Rat model of acute PAH: U-44069 infusion, pulmonary artery pressure by telemetry. It counts as in vivo. The method, then:
This study utilized administration of a thromboxane agonist to elevate pulmonary artery pressure (PAP) in the rat as a model for PAH. Treprostinil was administered to the rats by oral gavage (UT-15C), nose-only inhalation (Tyvaso) or in a combined oral+inhalation regimen, followed by PAP assessment.
Experimental Design: For this study, a rat model of acute PAH was developed with the ability to measure real-time PAP by telemetry from a catheter surgically implanted into the rat pulmonary artery. To induce PAH in this model, a 15 minute intravenous (IV) infusion of the thromboxane agoinst, U44069, was administered, and PAP was monitored and recorded every 5 seconds.
To establish this model, initial testing and optimization of the concentration and infusion rate of the U-44069 was performed to best achieve elevated PAP. […] Following the preliminary individual oral and inhaled treprostinil range-finding studies, a combination administration of oral+inhaled treprostinil was performed.
The animals received U-44069 (0.5 mg/mL) at a dose rate of 10 mL/kg/hr for 15 minutes for a total dose of 1.25 mg/kg/dose. The animals received 3 to 4 IV doses/session, as detailed below.
• 1. Animals were treated as follows: • 2. IV for 15 minutes • 3. Oral gavage, as soon as practicable following the 15-minute infusion • 4. 1 hour following gavage, IV for 15 minutes. • 5. 2 hours following gavage, IV for 15 minutes Dose 2, inhalation:
Animals were treated as follows: • 1. IV for 15 minutes • 2. Inhalation exposure, as soon as practicable following the 15-minute infusion • 3. Approximately 5 minutes after inhalation completion, IV for 15 minutes. • 4. 1 hour later, IV for 15 minutes Dose 3, inhalation and oral gavage:
Animals were treated as follows: • 1. IV for 15 minutes • 2. Oral gavage, as soon as practicable following the 15-minute infusion • 3. Inhalation exposure, as soon as practicable following oral gavage. All animals were exposed to the low dose (5.26 μg/kg). • 4. Approximately 5 minutes after inhalation completion, IV for 15 minutes. • 5. 1 hour later, IV for 15 minutes • 6. 2 hours after oral gavage, IV for 15 minutes for 2 animals (1 low and 1 high oral dose) Inhaled, Oral and Combination Treprostinil Dosing Results: […]

For data set [2] the following is noted: cited from earlier work.
The conditions of data set [3]: low pH (stomach); cited from earlier work.

For `CCCCC[C@H](O)/C=C/[C@H]1[C@@H]2CO[C@@H](C2)[C@@H]1C/C=C\CCCC(=O)O` [U-44069], in data set [1] (IV U-44069 0.5 mg/mL, 10 mL/kg/hr for 15 minutes, all occasions except animal 2001), the “maximum PAP during U-44069 infusion relative to baseline” value is recorded as “at least 150 % of the baseline”.

`CCCCC[C@H](O)/C=C/[C@@H]1[C@H]2C/C(=C/CCCC(=O)O)O[C@H]2C[C@H]1O` [prostacyclin]: the “half-life in the blood” value in data set [2] was 3 to 5 min. Besides, in data set [3], the “stability at low pH” value was “inactivated by a low pH”.

On to `CCCCC[C@H](O)CC[C@@H]1[C@H]2Cc3cccc(OCC(=O)O)c3C[C@H]2C[C@H]1O` [treprostinil], for which the “PAP reduction when oral treprostinil added to low dose inhaled treprostinil” value in data set [1] (combination dosing regimen, in magnitude or duration) was “additional PAP reduction was observed”. Also, the “PAP following inhalation exposure (immediately post dosing)” value in data set [1] (inhalation 5.26, 10.6 or 34.1 μg/kg/day, all dose levels, during U-44069 infusion) is “approximately 120 % the baseline”. The “PAP at 1 hr post dosing compared to IPD values” in data set [1] (inhalation 5.26, 10.6 or 34.1 μg/kg/day, additional U-44069 injection 1 hour after inhalation) was “significantly increased”. The “PAP reduction at IPD, combination dosing Group 3” value in data set [1] (low dose inhaled (5.26 μg/kg/day) + high oral gavage, versus individual high dose inhalation (34.1 μg/kg/day), sustained to 1 hr PD) is “equivalent (#3001) or greater (#3002)”. The “PAP reduction, combination dosing Group 1” value in data set [1] (low dose inhaled (5.26 μg/kg/day) + low (5 mg/kg/dose) oral gavage, versus low dose inhaled alone) was “sustained effect to 1 hr”. Also, in data set [1] (low dose inhaled (5.26 μg/kg/day) + mid (10 mg/kg/dose) oral gavage, versus individual mid-dose inhalation (10.6 μg/kg/day)), the “PAP decrease at IPD, combination dosing Group 2” value was “equivalent or greater”. Further, the “PAP after oral gavage” value in data set [1] (oral gavage 5, 10 or 15 mg/kg/dose, 1 hr PD and 2 hr PD) was “decreases in PAP were generally observed in a dose-related fashion”. For the same compound, the “PAP during the PAH condition, any route of administration” value in data set [1] (oral gavage, nose-only inhalation or combined) was “generally reduce PAP”.
